Experimental data published in patent publication US12448369B2 (Edgewise Therapeutics, Inc., priority 2023, dated 2025).

Test system: Rabbit Psoas myofibrils (skeletal myosin ATPase)
Test: Myofibril ATPase assay, rabbit psoas (skeletal) myofibrils
Type: biochemical
Details: rabbit psoas myofibrils; Y75 value
Procedure, shortened: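 Values derive from concentration–response fits of NADH consumption rates at 340 nm, normalized to vehicle-only wells, as Y75 or Y125. Myofibril ATP turnover was linked to NADH via PK/LDH in Ca/EGTA-buffered PIPES, pH 7.0, and read over 75 min.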

In order of falling “Skeletal EC25” value:
1. Cc1nccc2[nH]c(=O)c(CC(=O)N[C@H](C)c3cccc(O)c3)c(C)c12 (single isomer, unassigned) [compound 330]  100.00 µM
2. Cc1nccc2[nH]c(=O)c(CC(=O)NC[C@H](CO)c3ccccc3)c(C)c12 [compound 493]  100.00 µM
3. Cc1nccc2[nH]c(=O)c(CC(=O)NC(CO)c3ncccc3F)c(C)c12 (stereo not drawn) [compound 237]  100.00 µM
4. Cc1nccc2[nH]c(=O)c(CC(=O)N[C@H](C)c3cccnc3O)c(C)c12 (single isomer, unassigned) [compound 302]  100.00 µM
5. Cc1nc([C@@H](C)NC(=O)Cc2c(C)c3c(C)nccc3[nH]c2=O)ncc1C#N [compound 478]  65.26 µM
6. Cc1c(CC(=O)N[C@@H]2c3c(F)cc(F)cc3OC2(C)C)c(=O)[nH]c2ccnc(C#N)c12 (single isomer, unassigned) [compound 188]  26.50 µM
7. Cc1c(CC(=O)N[C@@H](C)c2ccc(F)cc2F)c(=O)[nH]c2ccc(O)nc12 [compound 299]  17.50 µM
8. Cc1c(CC(=O)N[C@H](CO)c2ccc(F)cc2F)c(=O)[nH]c2ccnc(OC3CC3)c12 [compound 199]  13.03 µM
9. C[C@H](NC(=O)Cc1cc2nc(Cl)ncc2[nH]c1=O)c1ccc(F)cc1F [compound 390]  7.06 µM
10. COc1nccc2[nH]c(=O)c([C@H](C)C(=O)N[C@@H](C)c3ccc(F)cc3F)c(C(F)(F)F)c12 (single isomer, unassigned) [compound 424]  4.49 µM
11. C[C@H](NC(=O)Cc1cc2c(C#N)nccc2[nH]c1=O)c1ccc(F)cn1 [compound 475]  2.98 µM
12. C[C@H](NC(=O)Cc1cc2cnccc2[nH]c1=O)c1ccc(F)cc1F [compound 441]  1.88 µM
13. Cc1nccc2[nH]c(=O)c(CC(=O)N[C@H]3CNc4cc(F)cc(F)c43)c(C)c12 (single isomer, unassigned) [compound 182]  1.76 µM
14. Cc1ccc2[nH]c(=O)c(CC(=O)N[C@@H](C)c3ncc(C#N)cc3F)c(C)c2n1 [compound 469]  0.55 µM
15. Cc1nccc2[nH]c(=O)c([C@@H](C)C(=O)N[C@@H](C)c3ccc(F)cc3F)c(C)c12 (single isomer, unassigned) [compound 399]  0.30 µM
16. Cc1nccc2[nH]c(=O)c(CC(=O)N[C@H](C)c3ccc(C#N)cc3F)c(Cl)c12 [compound 151]  0.11 µM
17. C[C@H](NC(=O)Cc1c(C(F)(F)F)c2cnccc2[nH]c1=O)c1ccc(F)cc1F [compound 447]  0.05 µM
18. Cc1nccc2[nH]c(=O)c(CC(=O)N[C@@H](C)c3ccc(C#N)cc3F)c(Cl)c12 [compound 152]  0.01 µM
19. CCOc1nccc2[nH]c(=O)c(CC(=O)N[C@@H](C)c3ccc(F)cc3F)c(C)c12 [compound 381]  0.01 µM

Same assay, conditions: ‡ Y125 value, not a Y75 value (125% activity relative to no compound); rabbit psoas myofibrils

For Cc1c(C2(C(=O)N[C@H](C)c3nccc(C#N)n3)CC2)c(=O)[nH]c2ccc(F)c(F)c12 (single isomer, unassigned) [compound 2509], the “Skeletal EC25” value was 94.41‡ μM.

Biological target: T1, Porcine ventricle myofibrils (ventricular myosin ATPase) (Sus scrofa, UniProt P79293)
T1 construct: Myofibrils from porcine cardiac muscle was isolated from the left ventricle of Yucatan minipigs; tissue Exemplar Genetics; host or cells: left ventricle of Yucatan minipigs, myofibrils prepared in house
T1 sequence (P79293 whole entry): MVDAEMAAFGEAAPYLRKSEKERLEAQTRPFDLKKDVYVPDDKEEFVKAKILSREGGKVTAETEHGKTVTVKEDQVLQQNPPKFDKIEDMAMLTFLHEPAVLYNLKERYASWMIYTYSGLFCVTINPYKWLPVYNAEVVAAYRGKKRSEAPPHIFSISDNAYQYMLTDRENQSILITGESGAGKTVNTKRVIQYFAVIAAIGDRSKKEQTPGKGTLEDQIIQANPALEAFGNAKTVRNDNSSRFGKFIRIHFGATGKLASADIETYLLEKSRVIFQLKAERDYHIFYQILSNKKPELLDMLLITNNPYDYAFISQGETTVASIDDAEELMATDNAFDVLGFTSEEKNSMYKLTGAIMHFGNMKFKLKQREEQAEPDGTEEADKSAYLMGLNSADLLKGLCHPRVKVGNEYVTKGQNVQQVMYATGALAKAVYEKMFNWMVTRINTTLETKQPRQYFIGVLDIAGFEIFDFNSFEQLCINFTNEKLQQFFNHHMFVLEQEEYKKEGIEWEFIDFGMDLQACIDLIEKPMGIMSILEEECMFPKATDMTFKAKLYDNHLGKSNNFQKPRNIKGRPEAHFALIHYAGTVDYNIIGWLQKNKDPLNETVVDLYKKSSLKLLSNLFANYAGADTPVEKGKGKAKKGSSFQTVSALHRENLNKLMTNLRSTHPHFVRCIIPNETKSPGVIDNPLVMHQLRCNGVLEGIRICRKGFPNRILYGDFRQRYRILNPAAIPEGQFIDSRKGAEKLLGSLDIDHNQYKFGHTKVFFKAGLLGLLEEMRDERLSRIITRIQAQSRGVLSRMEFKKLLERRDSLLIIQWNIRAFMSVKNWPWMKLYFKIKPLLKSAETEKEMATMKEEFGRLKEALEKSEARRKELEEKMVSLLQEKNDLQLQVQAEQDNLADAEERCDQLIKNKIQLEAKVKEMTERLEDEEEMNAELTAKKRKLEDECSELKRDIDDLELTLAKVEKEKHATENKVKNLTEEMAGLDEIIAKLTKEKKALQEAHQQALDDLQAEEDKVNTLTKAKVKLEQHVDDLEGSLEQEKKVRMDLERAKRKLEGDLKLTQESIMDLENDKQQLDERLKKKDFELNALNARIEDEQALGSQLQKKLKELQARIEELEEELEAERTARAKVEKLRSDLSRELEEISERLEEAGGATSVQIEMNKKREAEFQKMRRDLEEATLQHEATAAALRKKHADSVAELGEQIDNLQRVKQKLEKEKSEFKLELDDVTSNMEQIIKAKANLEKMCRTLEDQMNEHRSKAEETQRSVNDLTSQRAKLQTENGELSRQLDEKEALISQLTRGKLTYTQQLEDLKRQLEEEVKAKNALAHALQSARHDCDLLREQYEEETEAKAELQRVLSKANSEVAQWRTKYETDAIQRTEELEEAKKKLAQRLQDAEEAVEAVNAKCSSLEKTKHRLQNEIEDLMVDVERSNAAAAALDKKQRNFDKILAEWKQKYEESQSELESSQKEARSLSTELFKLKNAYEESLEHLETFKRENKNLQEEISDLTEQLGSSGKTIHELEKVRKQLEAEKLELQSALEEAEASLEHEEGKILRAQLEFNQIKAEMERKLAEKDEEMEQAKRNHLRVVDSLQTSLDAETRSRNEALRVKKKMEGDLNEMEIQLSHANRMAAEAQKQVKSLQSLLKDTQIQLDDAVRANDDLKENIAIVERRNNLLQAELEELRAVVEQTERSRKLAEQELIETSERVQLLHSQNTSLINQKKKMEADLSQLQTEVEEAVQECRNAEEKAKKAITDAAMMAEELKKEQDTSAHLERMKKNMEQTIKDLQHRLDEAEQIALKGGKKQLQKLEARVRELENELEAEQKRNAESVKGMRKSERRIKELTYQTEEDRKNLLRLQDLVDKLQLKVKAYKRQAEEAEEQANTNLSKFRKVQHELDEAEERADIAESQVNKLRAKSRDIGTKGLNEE
Test: Myofibril ATPase assay, porcine ventricle myofibrils
Type: biochemical, porcine (Yucatan minipigs)
Details: porcine ventricle myofibrils; Y75 value
Procedure, shortened: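 Test compounds acted on myofibrils isolated from the left ventricle of Yucatan minipigs. ADP formation was coupled via pyruvate kinase/lactate dehydrogenase to NADH oxidation, monitored kinetically at 340 nm over 75 min. Rates relative to vehicle were fitted with a 4-parameter logistic model, reported as Y75 (25% inhibition) or Y125 (activation) concentrations.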

In order of falling “Ventricular EC25” value:
1. Cc1nccc2[nH]c(=O)c(CC(=O)N[C@H](C)c3cccc(O)c3)c(C)c12 (single isomer, unassigned) [compound 330]  100.00 µM
2. Cc1nccc2[nH]c(=O)c(CC(=O)NC[C@H](CO)c3ccccc3)c(C)c12 [compound 493]  100.00 µM
3. Cc1nccc2[nH]c(=O)c(CC(=O)NC(CO)c3ncccc3F)c(C)c12 (stereo not drawn) [compound 237]  100.00 µM
4. C[C@H](NC(=O)Cc1cc2cnccc2[nH]c1=O)c1ccc(F)cc1F [compound 441]  100.00 µM
5. Cc1nccc2[nH]c(=O)c(CC(=O)N[C@H](C)c3cccnc3O)c(C)c12 (single isomer, unassigned) [compound 302]  100.00 µM
6. Cc1c(CC(=O)N[C@@H](C)c2ccc(F)cc2F)c(=O)[nH]c2ccc(O)nc12 [compound 299]  100.00 µM
7. Cc1c(CC(=O)N[C@H](CO)c2ccc(F)cc2F)c(=O)[nH]c2ccnc(OC3CC3)c12 [compound 199]  67.50 µM
8. C[C@H](NC(=O)Cc1cc2nc(Cl)ncc2[nH]c1=O)c1ccc(F)cc1F [compound 390]  44.80 µM
9. C[C@H](NC(=O)Cc1cc2c(C#N)nccc2[nH]c1=O)c1ccc(F)cn1 [compound 475]  39.76 µM
10. Cc1c(CC(=O)N[C@@H]2c3c(F)cc(F)cc3OC2(C)C)c(=O)[nH]c2ccnc(C#N)c12 (single isomer, unassigned) [compound 188]  39.56 µM
11. Cc1nccc2[nH]c(=O)c(CC(=O)N[C@H]3CNc4cc(F)cc(F)c43)c(C)c12 (single isomer, unassigned) [compound 182]  35.91 µM
12. Cc1nc([C@@H](C)NC(=O)Cc2c(C)c3c(C)nccc3[nH]c2=O)ncc1C#N [compound 478]  33.12 µM
13. Cc1nccc2[nH]c(=O)c([C@@H](C)C(=O)N[C@@H](C)c3ccc(F)cc3F)c(C)c12 (single isomer, unassigned) [compound 399]  18.33 µM
14. COc1nccc2[nH]c(=O)c([C@H](C)C(=O)N[C@@H](C)c3ccc(F)cc3F)c(C(F)(F)F)c12 (single isomer, unassigned) [compound 424]  17.24 µM
15. C[C@H](NC(=O)Cc1c(C(F)(F)F)c2cnccc2[nH]c1=O)c1ccc(F)cc1F [compound 447]  10.16 µM
16. Cc1ccc2[nH]c(=O)c(CC(=O)N[C@@H](C)c3ncc(C#N)cc3F)c(C)c2n1 [compound 469]  1.66 µM
17. Cc1nccc2[nH]c(=O)c(CC(=O)N[C@H](C)c3ccc(C#N)cc3F)c(Cl)c12 [compound 151]  0.87 µM
18. CCOc1nccc2[nH]c(=O)c(CC(=O)N[C@@H](C)c3ccc(F)cc3F)c(C)c12 [compound 381]  0.31 µM
19. Cc1nccc2[nH]c(=O)c(CC(=O)N[C@@H](C)c3ccc(C#N)cc3F)c(Cl)c12 [compound 152]  0.09 µM

Same assay, conditions: ‡ Y125 value, not a Y75 value (125% activity relative to no compound); porcine ventricle myofibrils

Cc1c(C2(C(=O)N[C@H](C)c3nccc(C#N)n3)CC2)c(=O)[nH]c2ccc(F)c(F)c12 (single isomer, unassigned) [compound 2509] was tested, and the “Ventricular EC25” value was 77.92‡ μM.

Test system: Porcine atria myofibrils (atrial myosin ATPase)
Test: Myofibril ATPase assay, porcine atria myofibrils
Type: biochemical
Details: porcine atria myofibrils; Y75 value (75% activity relative to no compound)
Procedure, shortened: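 Atrial myofibril ATPase measured by NADH-coupled absorbance at 340 nm; vehicle-normalized slopes fitted to give Y75 or Y125 values.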

In order of falling “Atrial EC25” value:
1. Cc1nccc2[nH]c(=O)c(CC(=O)N[C@H](C)c3cccc(O)c3)c(C)c12 (single isomer, unassigned) [compound 330]  100.00 µM
2. C[C@H](NC(=O)Cc1cc2nc(Cl)ncc2[nH]c1=O)c1ccc(F)cc1F [compound 390]  100.00 µM
3. Cc1c(CC(=O)N[C@H](CO)c2ccc(F)cc2F)c(=O)[nH]c2ccnc(OC3CC3)c12 [compound 199]  100.00 µM
4. Cc1nccc2[nH]c(=O)c(CC(=O)NC[C@H](CO)c3ccccc3)c(C)c12 [compound 493]  100.00 µM
5. Cc1nccc2[nH]c(=O)c(CC(=O)NC(CO)c3ncccc3F)c(C)c12 (stereo not drawn) [compound 237]  100.00 µM
6. C[C@H](NC(=O)Cc1cc2c(C#N)nccc2[nH]c1=O)c1ccc(F)cn1 [compound 475]  100.00 µM
7. Cc1nccc2[nH]c(=O)c(CC(=O)N[C@H](C)c3cccnc3O)c(C)c12 (single isomer, unassigned) [compound 302]  100.00 µM
8. Cc1c(CC(=O)N[C@@H](C)c2ccc(F)cc2F)c(=O)[nH]c2ccc(O)nc12 [compound 299]  10.21 µM
9. Cc1nccc2[nH]c(=O)c(CC(=O)N[C@H]3CNc4cc(F)cc(F)c43)c(C)c12 (single isomer, unassigned) [compound 182]  8.60 µM
10. Cc1nc([C@@H](C)NC(=O)Cc2c(C)c3c(C)nccc3[nH]c2=O)ncc1C#N [compound 478]  5.84 µM
11. C[C@H](NC(=O)Cc1cc2cnccc2[nH]c1=O)c1ccc(F)cc1F [compound 441]  3.48 µM
12. Cc1c(CC(=O)N[C@@H]2c3c(F)cc(F)cc3OC2(C)C)c(=O)[nH]c2ccnc(C#N)c12 (single isomer, unassigned) [compound 188]  2.43 µM
13. COc1nccc2[nH]c(=O)c([C@H](C)C(=O)N[C@@H](C)c3ccc(F)cc3F)c(C(F)(F)F)c12 (single isomer, unassigned) [compound 424]  1.91 µM
14. Cc1nccc2[nH]c(=O)c([C@@H](C)C(=O)N[C@@H](C)c3ccc(F)cc3F)c(C)c12 (single isomer, unassigned) [compound 399]  0.91 µM
15. Cc1nccc2[nH]c(=O)c(CC(=O)N[C@H](C)c3ccc(C#N)cc3F)c(Cl)c12 [compound 151]  0.44 µM
16. C[C@H](NC(=O)Cc1c(C(F)(F)F)c2cnccc2[nH]c1=O)c1ccc(F)cc1F [compound 447]  0.25 µM
17. Cc1ccc2[nH]c(=O)c(CC(=O)N[C@@H](C)c3ncc(C#N)cc3F)c(C)c2n1 [compound 469]  0.15 µM
18. CCOc1nccc2[nH]c(=O)c(CC(=O)N[C@@H](C)c3ccc(F)cc3F)c(C)c12 [compound 381]  0.10 µM
19. Cc1nccc2[nH]c(=O)c(CC(=O)N[C@@H](C)c3ccc(C#N)cc3F)c(Cl)c12 [compound 152]  0.05 µM

Same assay, conditions: ‡ Y125 value, not a Y75 value (125% activity relative to no compound); porcine atria myofibrils

For Cc1c(C2(C(=O)N[C@H](C)c3nccc(C#N)n3)CC2)c(=O)[nH]c2ccc(F)c(F)c12 (single isomer, unassigned) [compound 2509], the “Atrial EC25” value was 100.00‡ μM.
